Assay results as given in PubChem BioAssay (NCI).
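In this assay, cells in 96-well plates receive the compound at five concentrations for 48 hours. Endpoints are linearly interpolated between the surrounding concentrations. GI50 marks 50% less growth. TGI denotes the concentration required for complete inhibition of growth.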

What was measured:
Assay in all cases: NCI anticancer screen, dose series, 48 h
[1] = system: A498 renal
[2] = system: HL-60(TB) leukemia
[3] = system: KM12 colon
[4] = system: NCI-H23 lung
[5] = system: NCI-H522 lung
[6] = system: NCI/ADR-RES ovarian
[7] = system: OVCAR-3 ovarian
[8] = system: SF-539 CNS
[9] = system: UACC-62 melanoma
[10] = system: UO-31 renal

| Structure (SMILES) | GI50 [1] | TGI [1] | GI50 [2] | TGI [2] | GI50 [3] | TGI [3] | GI50 [4] | TGI [4] | GI50 [5] | TGI [5] | GI50 [6] | TGI [6] | GI50 [7] | TGI [7] | GI50 [8] | TGI [8] | GI50 [9] | TGI [9] | GI50 [10] | TGI [10] |
| --- | --- | --- | --- | --- | --- | --- | --- | --- | --- | --- | --- | --- | --- | --- | --- | --- | --- | --- | --- | --- |
| CN1CCN(CCCOc2ccc3nc(Nc4ccc(Cl)c(C(F)(F)F)c4)ccc3c2)CC1 | 13.7 µM | 28.8 µM | 13.9 µM | 31.1 µM | 9.51 µM | 23.4 µM | 13.9 µM | 29.3 µM | 14.1 µM | 28.1 µM | 14.7 µM | 33.2 µM | 12.5 µM | 25.8 µM | 13.8 µM | 33.3 µM | 16.4 µM | 31.7 µM | 14.5 µM | 29.4 µM |
| COC1=C(C)C(=O)c2c(c(COC(N)=O)c3n2CC2C3N2C)C1=O (stereo unspecified) |  | 0.206 µM |  | 0.17 µM |  | 0.143 µM |  | < 0.0363 µM |  | 0.0304 µM |  | 0.336 µM |  | 0.0987 µM |  | 0.12 µM |  | 0.117 µM |  | 0.232 µM |
| CC(C)(C)c1cc(Br)c(O)c(CN(Cc2cc(C(C)(C)C)cc(Br)c2O)C2CCCCC2)c1 |  | 26.3 µM |  | 35.8 µM |  | 29.4 µM |  | 26.3 µM |  | 25.1 µM |  | 24.3 µM |  | 24.2 µM |  |  |  | 25.3 µM |  | 27.4 µM |
| COc1ccc(/C=C/c2ccnc3ccccc23)c(OC)c1 |  | > 10 µM |  | 6.91 µM |  | > 10 µM |  |  |  | > 10 µM |  | > 10 µM |  | > 10 µM |  | > 10 µM |  | > 10 µM |  | > 10 µM |
| CC(C)n1nc(-c2cc3cc(O)ccc3[nH]2)c2c(N)ncnc21 | 0.0194 µM | 0.123 µM | 1.26 µM | 5.77 µM | 0.307 µM | 10.8 µM | 0.317 µM | 9.19 µM | 0.0974 µM | 2.02 µM | 0.348 µM | 7.22 µM | 0.22 µM | 2.75 µM | 0.309 µM | 2.18 µM | 0.161 µM | 0.962 µM | 0.0464 µM | 0.726 µM |
| C[C@@]12CC=C3c4nc(Nc5cccc(O)c5)sc4CC[C@]3(C)[C@H]1CC[C@]1(C)C(=O)CC[C@@H]21 | 18 µM | 75.8 µM | 2.35 µM | 6.48 µM |  |  | 2.74 µM | 12.3 µM | 2.14 µM | 4.64 µM | 3.1 µM | > 100 µM | 1.66 µM | 3.1 µM | 0.387 µM | 1.52 µM | 2.08 µM | 5.25 µM |  |  |
| CCCCC(O)(c1ccc(Cl)cc1)C(CN1CCOCC1)c1ccc(Cl)cc1 (stereo unspecified) | 11.1 µM | 24.1 µM | 16.7 µM | 39.5 µM | 12.2 µM | 29.1 µM | 10.6 µM | 28.7 µM | 7.26 µM | 21.7 µM | 12 µM | 32.2 µM | 14.5 µM | 28 µM | 17 µM | 36.6 µM | 12.4 µM | 28.7 µM | 12.2 µM | 26.2 µM |
| c1cc(CNC23CC4CC(CC(C4)C2)C3)cc(C[N+](Cc2cccc(CNC34CC5CC(CC(C5)C3)C4)c2)(Cc2cccc(CNC34CC5CC(CC(C5)C3)C4)c2)Cc2cccc(CNC34CC5CC(CC(C5)C3)C4)c2)c1 (stereo unspecified) | 4.98 µM | 29.5 µM | 3.64 µM | 11.3 µM | 6.92 µM | 28.2 µM | 6.38 µM | 26.6 µM | 3.06 µM | 6.49 µM | 6.01 µM | 19 µM | 4.35 µM | 11.8 µM | 4.23 µM | 10.3 µM | 4.86 µM | 15.4 µM | 3.41 µM | 8.21 µM |
| C=C1C(=O)O[C@H]2[C@H]1CC/C(COC(=O)C(=O)c1cn(Cc3ccccc3)c3ccccc13)=C\CC[C@@]1(C)O[C@@H]21 | 18.5 µM | 35.2 µM | 2.26 µM | 7 µM | 3.06 µM | 11.5 µM | 1.67 µM | 3.56 µM | 1.63 µM | 3.42 µM | 2.75 µM | 9.83 µM | 2.18 µM | 5.65 µM | 1.9 µM | 3.83 µM | 1.8 µM | 4.42 µM | 1.61 µM | 3.1 µM |
| COc1cc2nc3cc([N+](=O)[O-])ccc3c(NCCCNCCO)c2cc1OC | 0.214 µM | 0.527 µM | 0.463 µM | 4.32 µM | 0.285 µM | 0.843 µM | 0.143 µM | 0.616 µM | 0.041 µM | 0.213 µM | 31.4 µM | > 100 µM | 0.244 µM | 0.622 µM | 0.191 µM | 0.478 µM |  |  | 2.15 µM | 14.2 µM |
| Cc1ccc(C(=O)CN(/C=C/C(=O)C(F)(F)F)c2ccc(S(N)(=O)=O)cc2)cc1 | > 100 µM | > 100 µM | 41.1 µM | > 100 µM | 31.4 µM | > 100 µM | 37.2 µM | > 100 µM | 53.8 µM | > 100 µM | 62.9 µM | > 100 µM | 42.6 µM | > 100 µM | > 100 µM | > 100 µM | > 100 µM | > 100 µM | > 100 µM | > 100 µM |
| C=C1C(=O)O[C@@H]2/C=C(\C)CC/C=C(/COC(C)=O)C[C@@H](OC(C)=O)[C@@H]12 |  | 36.6 µM |  | 8.52 µM |  | 34.3 µM |  | 32.5 µM |  | 3.2 µM |  | 57.8 µM |  | 14.2 µM |  | 36.3 µM |  | 26.4 µM |  | 22.3 µM |
| COC(=O)C1=CNC=C(C(=O)OC)C1C1=CC(=O)C(C)=CC1=O | 13.1 µM | 33.6 µM | 1.71 µM | 5.88 µM | 17.1 µM | 31.8 µM | 16.5 µM | 31 µM | 19.8 µM | 47.2 µM | 16.5 µM | 31.2 µM | 5.64 µM | 22.1 µM | 14.9 µM | 29.6 µM | 13.6 µM | 26.5 µM | 12 µM | 24.5 µM |
| Oc1cccnc1CN1CCCCC1 |  | > 100 µM |  |  |  | > 100 µM |  | > 100 µM |  | > 100 µM |  | > 100 µM |  | > 100 µM |  | > 100 µM |  | > 100 µM |  | > 100 µM |
